Experimental data as given in patent EP3290412A1, “HIV-1 NUCLEOCAPSID INHIBITORS” (Università degli Studi di Siena, priority 2016, dated 2018).
Where two headings read alike, the source gives them in different places.

Key:
[1] = molecular target: T1, full length (1-55) HIV-1 NCp7 (Human immunodeficiency virus type 1 group M subtype B, UniProt P12493); test: Electromobility Shift Assay (EMSA), competition for ssDNA binding; conditions: NCp7 300 nM, M13mp18 ssDNA; positive = >25% inhibition at 100µM
T1 construct: recombinant full length (1-55) HIV-1 NCp7 proteins; made in house
Procedure, shortened: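 Recombinant NL4-3 NCp7 (300 nM in the pre-mix) was combined with compound in 20 mM Tris-HCl pH 7.4, 2 mM MgCl2, 100 mM NaCl, 1 mM DTT, then M13mp18 ssDNA was added for 25 min at 37 °C. Complexes were run on 1% agarose/0.5x TBE and stained with SybrGold. IC50 is the concentration at which bound ssDNA migrated 50% of the bound–unbound distance (triplicate).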

[2] = test system: HIV-1 reference strain NL4-3; test: BiCycle assay (MT-2 then TZM-bl cells); type: cell-based
Procedure, shortened: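 MT-2 cells were infected with NL4-3 in the presence of five-fold compound dilutions. After 72 h, the supernatant was passed to TZM-bl cells. Two days later, luciferase luminescence was read and IC50 calculated, giving a readout that spans the whole replication cycle.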

HeLa cells = test: HeLa Proliferation assay (CellTiter Glo); type: cell-based; conditions: 72 hours
Procedure, shortened: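 Viability measured with CellTiter Glo after 72 h compound exposure (37 °C, 5% CO2, humidified) of HeLa cells seeded at 2000 per well in 10% FBS DMEM without phenol red and allowed 4 h recovery.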

[3] = test system: Peripheral blood mononuclear cells (PBMC); type: cell-based; conditions: human, 7 days
Procedure, shortened: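 Cytotoxicity measured after 7 days of compound exposure by MTS conversion (OD 490 nm, 4 h). The cells were PHA-activated (5 µg/mL, 2 days) donor PBMC, cultured with 20 IU/mL IL-2 at 1x10^5 cells/well. TD50 is the dose killing 50% versus untreated control, read from the dose-mortality curve.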

[4] = Human immunodeficiency virus 1, NL43, TZM-bl, read-out: BiCycle IC50 nM

Row | SMILES | EMSA screening results [1] | IC50 ([2]; Human immunodeficiency virus 1, NL43, MT-2 cells 72 hours then TZM-bl cells two days, NL4-3, read-out: BiCycle IC50) [nM] | Proliferation assay HELA TD50 (HeLa cells) [µM] | Proliferation assay PBMC TD50 [3] [nM] | IC50 [2, 4] [nM]
1 | COc1cc(-c2nc(O)c(O)c(C(=O)N[C@H](C)C3CCCCC3)n2)nc2ccccc12 [Compound 68, N-[(1R)-1-cyclohexylethyl]-2-(4-methoxyquinolin-2-yl)-5,6-bis(oxidanyl)pyrimidine-4-carboxamide] | Positive (A compound showing >25% inhibition when tested at 100µM concentration is considered as "positive") | 240 | 5.7007 | 2660 | 
2 | O=C(NCCC1CCCCC1)c1nc(-c2ccccn2)nc(O)c1O [Compound 6, N-(2-cyclohexylethyl)-5,6-dihydroxy-2-(pyridin-2-yl)pyrimidine-4-carboxamide] | Positive (A compound showing >25% inhibition when tested at 100µM concentration is considered as "positive") |  | 4.2362 | 10480 | 2260
3 | CC1CCC(NC(=O)c2nc(-c3ccccn3)nc(O)c2O)CC1 (stereo not shown) [Compound 56, 5,6-dihydroxy-N-(4-methylcyclohexyl)-2-(pyridin-2-yl)pyrimidine-4-carboxamide] | Positive (A compound showing >25% inhibition when tested at 100µM concentration is considered as "positive") |  | 3.2039 | 4600 | 341
4 | CC(OC(=O)c1nc(-c2ccccn2)nc(O)c1O)C1CCCCC1 (stereo not shown) [Compound 17, 1-cyclohexylethyl 5,6-dihydroxy-2-(pyridin-2-yl)pyrimidine-4-carboxylate] | Negative |  | >50 | 5500 | 2030
5 | O=C(OCCC1CCCCC1)c1nc(-c2ccccn2)nc(O)c1O [Compound 12, 2-cyclohexylethyl 5,6-dihydroxy-2-(pyridin-2-yl)pyrimidine-4-carboxylate] | Negative |  | >50 | 4000 | 2820
6 | C[C@@H](NC(=O)c1nc(-c2ccc(C(F)(F)F)cn2)nc(O)c1O)C1CCCCC1 [Compound 36, (R)-N-(1-cyclohexylethyl)-5,6-dihydroxy-2-(5-(trifluoromethyl)pyridin-2-yl)pyrimidine-4-carboxamide] | Positive (A compound showing >25% inhibition when tested at 100µM concentration is considered as "positive") |  | 4.7177 | 465 | 132
7 | C[C@@H](NC(=O)c1nc(-c2cc(Cl)ccn2)nc(O)c1O)C1CCCCC1 [Compound 26, (R)-2-(4-chloropyridin-2-yl)-N-(1-cyclohexylethyl)-5,6-dihydroxypyrimidine-4-carboxamide] | Positive (A compound showing >25% inhibition when tested at 100µM concentration is considered as "positive") |  | 3.1977 | 2490 | 121
8 | Cc1cccc(-c2nc(O)c(O)c(C(=O)N[C@H](C)C3CCCCC3)n2)n1 [Compound 18, (R)-N-(1-cyclohexylethyl)-5,6-dihydroxy-2-(6-methylpyridin-2-yl)pyrimidine-4-carboxamide] | Positive (A compound showing >25% inhibition when tested at 100µM concentration is considered as "positive") |  | 4.6302 | 2400 | 437
9 | C[C@@H](NC(=O)c1nc(-c2ccccn2)nc(O)c1O)C1CCCCC1 [Compound 5, (R)-N-(1-cyclohexylethyl)-5,6-dihydroxy-2-(pyridin-2-yl)pyrimidine-4-carboxamide] | Positive (A compound showing >25% inhibition when tested at 100µM concentration is considered as "positive") |  | 3.1844 | 3000 | 702
10 | O=C(NC1(C2CCCCC2)CC1)c1nc(-c2ccccn2)nc(O)c1O [Compound 24, N-(1-cyclohexylcyclopropyl)-5,6-dihydroxy-2-(pyridin-2-yl)pyrimidine-4-carboxamide] | Positive (A compound showing >25% inhibition when tested at 100µM concentration is considered as "positive") |  | 1.5131 | 2600 | 110
11 | CC(=O)Nc1ccc(-c2nc(O)c(O)c(C(=O)N[C@H](C)C3CCCCC3)n2)nc1 [Compound 62, (R)-2-(5-acetamidopyridin-2-yl)-N-(1-cyclohexylethyl)-5,6-dihydroxypyrimidine-4-carboxamide] | Positive (A compound showing >25% inhibition when tested at 100µM concentration is considered as "positive") |  | 4.5519 | 1870 | 252
12 | C[C@H](CC1CCCCC1)NC(=O)c1nc(-c2ccccn2)nc(O)c1O [Compound 64, (R)-N-(1-cyclohexylpropan-2-yl)-5,6-dihydroxy-2-(pyridin-2-yl)pyrimidine-4-carboxamide] | Positive (A compound showing >25% inhibition when tested at 100µM concentration is considered as "positive") |  | 0.4717 | 2500 | 210
13 | C[C@@H](NC(=O)c1nc(-c2cc(CCN(C)C)ccn2)nc(O)c1O)C1CCCCC1 [Compound 92, (R)-N-(1-cyclohexylethyl)-2-(4-(2-(dimethylamino)ethyl)pyridin-2-yl)-5,6-dihydroxypyrimidine-4-carboxamide] | Negative |  | 1.1684 | 2020 | 1400
14 | C[C@@H](NC(=O)c1nc(-c2ccc(C(=O)NCc3ccccc3)cn2)nc(O)c1O)C1CCCCC1 [Compound 50, (R)-2-(5-(benzylcarbamoyl)pyridin-2-yl)-N(1-cyclohexylethyl)-5,6-dihydroxypyrimidine-4-carboxamide] | Positive (A compound showing >25% inhibition when tested at 100µM concentration is considered as "positive") |  | 2.2912 | 2200 | 348
15 | C[C@@H](NC(=O)c1nc(-c2cc(C(=O)OCc3ccccc3)ccn2)nc(O)c1O)C1CCCCC1 [Compound 46, benzyl (R)-2-(4-((1-cyclohexylethyl)carbamoyl)-5,6-dihydroxypyrimidin-2-yl)isonicotinate] | Positive (A compound showing >25% inhibition when tested at 100µM concentration is considered as "positive") |  | 6.4784 | 1000 | 543
16 | C[C@@H](NC(=O)c1nc(-c2cc(CCNCc3cccn3C)ccn2)nc(O)c1O)C1CCCCC1 [Compound 91, (R)-N-(1-cyclohexylethyl)-5,6-dihydroxy-2-(4-(2-(((1-methyl-1H-pyrrol-2-yl)methyl)amino)ethyl)pyridin-2-yl)pyrimidine-4-carboxamide] | Positive (A compound showing >25% inhibition when tested at 100µM concentration is considered as "positive") |  | 1.1604 | 1090 | 1100
